Among the data in PubChem BioAssay AID1259407 (Chemical Carcinogenesis Research Information System (CCRIS), 2018) are mutagenic call values, retold here.

SMILES strings stand for the structures. Calls of active or inactive are those of the source. The rule behind the calls is not given here.

In the data set the test system is CCRIS mutagenicity, Ames/micronucleus/aberration tests. Briefly: CCRIS mutagenicity studies.
Where [1] appears, read: Test System: AMES SALMONELLA TYPHIMURIUM, Strain/Indicator: TA98, Metabolic Activation: NONE, Method: PREINCUBATION
Setting [2] is: Test System: AMES SALMONELLA TYPHIMURIUM, Strain/Indicator: TA98, Metabolic Activation: RAT, LIVER, S-9, AROCLOR 1254, Method: STANDARD PLATE.
Where [3] appears, read: Test System: AMES SALMONELLA TYPHIMURIUM, Strain/Indicator: TA100, Metabolic Activation: NONE, Method: PREINCUBATION
[4] abbreviates: Test System: AMES SALMONELLA TYPHIMURIUM, Strain/Indicator: TA98, Metabolic Activation: NONE, Method: STANDARD PLATE.
[5] abbreviates: Test System: AMES SALMONELLA TYPHIMURIUM, Strain/Indicator: TA100, Metabolic Activation: NONE, Method: STANDARD PLATE.
The mark [6] stands for this setting: Test System: AMES SALMONELLA TYPHIMURIUM, Strain/Indicator: TA100, Metabolic Activation: RAT, LIVER, S-9, AROCLOR 1254, Method: STANDARD PLATE.

Regarding `O=[N+]([O-])c1cc(O)c2ccc3cccc4ccc1c2c34`, the mutagenic call runs as follows: (Test System: AMES SALMONELLA TYPHIMURIUM, Strain/Indicator: TA98(1,8-DNP6), Metabolic Activation: NONE, Method: PREINCUBATION) “active; positive”; (Test System: AMES SALMONELLA TYPHIMURIUM, Strain/Indicator: TA98(1,8-DNP6), Metabolic Activation: NONE, Method: STANDARD PLATE) “active; positive”; (Test System: AMES SALMONELLA TYPHIMURIUM, Strain/Indicator: TA98(1,8-DNP6), Metabolic Activation: RAT, LIVER, S-9, AROCLOR 1254, Method: STANDARD PLATE) “active; positive”; (Test System: AMES SALMONELLA TYPHIMURIUM, Strain/Indicator: TA98(NR), Metabolic Activation: NONE, Method: PREINCUBATION) “active; positive”; (Test System: AMES SALMONELLA TYPHIMURIUM, Strain/Indicator: TA98(NR), Metabolic Activation: NONE, Method: STANDARD PLATE) “active; positive”; (Test System: AMES SALMONELLA TYPHIMURIUM, Strain/Indicator: TA98(NR), Metabolic Activation: RAT, LIVER, S-9, AROCLOR 1254, Method: STANDARD PLATE) “active; positive”. Further, the mutagenic call is “active; positive” under setting [1]; “active; positive” (Test System: AMES SALMONELLA TYPHIMURIUM, Strain/Indicator: TA98, Metabolic Activation: RAT, LIVER, S-9, AROCLOR 1254, Method: PREINCUBATION); “active; positive” under setting [2]; “active; positive” under setting [3]; “active; positive” (Test System: AMES SALMONELLA TYPHIMURIUM, Strain/Indicator: TA100, Metabolic Activation: RAT, LIVER, S-9, AROCLOR 1254, Method: PREINCUBATION); “active; positive” (Test System: AMES SALMONELLA TYPHIMURIUM, Strain/Indicator: YG1024, Metabolic Activation: NONE, Method: STANDARD PLATE). Also, the mutagenic call is “active; positive” (Test System: AMES SALMONELLA TYPHIMURIUM, Strain/Indicator: YG1024, Metabolic Activation: RAT, LIVER, S-9, AROCLOR 1254, Method: STANDARD PLATE); “inactive; negative” (Test System: CHINESE HAMSTER OVARY, Strain/Indicator: CHO (HGPRT)/6-THIOGUANINE, Metabolic Activation: NONE, Method: STANDARD PLATE); “active; positive” (Test System: CHINESE HAMSTER OVARY, Strain/Indicator: CHO (HGPRT)/6-THIOGUANINE, Metabolic Activation: RAT, LIVER, S-9, AROCLOR 1254, Method: STANDARD PLATE); “inactive; negative” (Test System: UDS RODENT HEPATOCYTES, Strain/Indicator: THY INCORP, Metabolic Activation: NONE, Method: AUTORADIOGRAPHY).

On to `Nc1ccc2c(c1)Cc1cc(N)ccc1-2`, for which the mutagenic call by setting is: under setting [4], “active; positive”; under setting [2], “active; positive”; under setting [5], “inactive; negative”; under setting [6], “active; positive”; (Test System: AMES SALMONELLA TYPHIMURIUM, Strain/Indicator: TA1538, Metabolic Activation: NONE, Method: STANDARD PLATE) “active; positive”; (Test System: AMES SALMONELLA TYPHIMURIUM, Strain/Indicator: TA1538, Metabolic Activation: RAT, LIVER, S-9, AROCLOR 1254, Method: STANDARD PLATE) “active; positive”.

On to `COc1ccc(CN(CC[N+](C)(C)[O-])c2ccccn2)cc1`, for which the mutagenic call is “inactive; negative” (Test System: AMES SALMONELLA TYPHIMURIUM, Strain/Indicator: TA97, Metabolic Activation: NONE, Method: STANDARD PLATE); “inactive; negative” (Test System: AMES SALMONELLA TYPHIMURIUM, Strain/Indicator: TA97, Metabolic Activation: RAT, LIVER, S-9, AROCLOR 1254, Method: STANDARD PLATE); “inactive; negative” under setting [4]; “inactive; negative” under setting [2]; “inactive; negative” under setting [5]; “inactive; negative” under setting [6]. Also, the mutagenic call runs as follows: (Test System: AMES SALMONELLA TYPHIMURIUM, Strain/Indicator: TA102, Metabolic Activation: NONE, Method: STANDARD PLATE) “inactive; negative”; (Test System: AMES SALMONELLA TYPHIMURIUM, Strain/Indicator: TA102, Metabolic Activation: RAT, LIVER, S-9, AROCLOR 1254, Method: STANDARD PLATE) “inactive; negative”.

Take `O=C(O)/C=C/Cl`: the mutagenic call runs as follows: (Test System: AMES SALMONELLA TYPHIMURIUM, Strain/Indicator: TA97, Metabolic Activation: RAT, LIVER, S-9, PCB, Method: STANDARD PLATE) “active; positive”; (Test System: AMES SALMONELLA TYPHIMURIUM, Strain/Indicator: TA102, Metabolic Activation: RAT, LIVER, S-9, PCB, Method: STANDARD PLATE) “active; positive”.

On to `Cc1nc2ccc(N)c(C)c2nc1C`, for which the mutagenic call is, setting by setting: under setting [1], “inactive; negative”; (Test System: AMES SALMONELLA TYPHIMURIUM, Strain/Indicator: TA98, Metabolic Activation: RAT, LIVER, S-9, PCB, Method: PREINCUBATION) “active; positive”; under setting [3], “inactive; negative”; (Test System: AMES SALMONELLA TYPHIMURIUM, Strain/Indicator: TA100, Metabolic Activation: RAT, LIVER, S-9, PCB, Method: PREINCUBATION) “active; positive”.

`O=C1CSC(=S)N1`: the mutagenic call reads like this: (Test System: AMES SALMONELLA TYPHIMURIUM, Strain/Indicator: TA98, Metabolic Activation: HAMSTER, LIVER, S-9, AROCLOR 1254 (10%), Method: PREINCUBATION) “inactive; negative”; under setting [1], “inactive; negative”; (Test System: AMES SALMONELLA TYPHIMURIUM, Strain/Indicator: TA98, Metabolic Activation: RAT, LIVER, S-9, AROCLOR 1254 (10%), Method: PREINCUBATION) “inactive; negative”; (Test System: AMES SALMONELLA TYPHIMURIUM, Strain/Indicator: TA100, Metabolic Activation: HAMSTER, LIVER, S-9, AROCLOR 1254 (10%), Method: PREINCUBATION) “inactive; negative”; under setting [3], “inactive; negative”; (Test System: AMES SALMONELLA TYPHIMURIUM, Strain/Indicator: TA100, Metabolic Activation: RAT, LIVER, S-9, AROCLOR 1254 (10%), Method: PREINCUBATION) “inactive; negative”. The mutagenic call by setting is: (Test System: AMES SALMONELLA TYPHIMURIUM, Strain/Indicator: TA1535, Metabolic Activation: HAMSTER, LIVER, S-9, AROCLOR 1254 (10%), Method: PREINCUBATION) “inactive; negative”; (Test System: AMES SALMONELLA TYPHIMURIUM, Strain/Indicator: TA1535, Metabolic Activation: NONE, Method: PREINCUBATION) “inactive; negative”; (Test System: AMES SALMONELLA TYPHIMURIUM, Strain/Indicator: TA1535, Metabolic Activation: RAT, LIVER, S-9, AROCLOR 1254 (10%), Method: PREINCUBATION) “inactive; negative”; (Test System: AMES SALMONELLA TYPHIMURIUM, Strain/Indicator: TA1537, Metabolic Activation: HAMSTER, LIVER, S-9, AROCLOR 1254 (10%), Method: PREINCUBATION) “inactive; negative”; (Test System: AMES SALMONELLA TYPHIMURIUM, Strain/Indicator: TA1537, Metabolic Activation: NONE, Method: PREINCUBATION) “inactive; negative”; (Test System: AMES SALMONELLA TYPHIMURIUM, Strain/Indicator: TA1537, Metabolic Activation: RAT, LIVER, S-9, AROCLOR 1254 (10%), Method: PREINCUBATION) “inactive; negative”.

Take `O=[N+]([O-])c1cccc2c1-c1ccccc1C2`: the mutagenic call (End Point: IN VITRO CHROMOSOMAL ABERRATIONS, Test System: CHINESE HAMSTER LUNG (CHL) CELLS, Metabolic Activation: NONE) was “active; positive” and the mutagenic call (End Point: IN VITRO CHROMOSOMAL ABERRATIONS, Test System: CHINESE HAMSTER LUNG (CHL) CELLS, Metabolic Activation: RAT, LIVER, S-9, KC-400) is “active; positive”.
